For 1 compound, Activity, inhibition and Kd results are on record in ChEMBL document CHEMBL5331068, “Briarane-type diterpenoids, the inhibitors of osteoclast formation by interrupting Keap1-Nrf2 interaction and activating Nrf2 pathway” (Eur J Med Chem, 2023).

The source made the active and inactive calls. The calls are words filed in the database; no cut-off is given here.

For assay [1], the system named is BMDM. As to the kind of experiment: Anti-osteoclastogenesis activity in RANKL-induced C57BL/6 mouse BMDM cells assessed as downregulation of cathepsin K mRNA expression at 5 to 10 uM by qRT-PCR analysis. The assay is classed as functional, cell-based. The settings on record: dose 5-10 µM. (Quantitative PCR measures a nucleic acid by following its amplification.)

Assay [2] in a line: Inhibition of RANKL-induced ERK phosphorylation in C57BL/6 mouse BMDM cells incubated for 60 mins by Western blot analysis. The assay is classed as cell-based. For orientation: A western blot detects proteins with antibodies after separation by electrophoresis.
The target in assay [3] is MAP kinase p38 (Mus musculus) (UniProt P47811+O08911+Q9WUI1+Q9Z1B7). As to the kind of experiment: Inhibition of RANKL-induced p38 MAPK phosphorylation in C57BL/6 mouse BMDM cells transfected with Nrf2 siRNA at 10 uM incubated for 60 mins by Western blot analysis. The assay is classed as cell-based.
A short description of assay [4]: Inhibition of RANKL-induced ERK phosphorylation in C57BL/6 mouse BMDM cells transfected with Nrf2 siRNA at 10 uM incubated for 60 mins by Western blot analysis. In kind it is cell-based.
Assay [5] concerns the target T1, NF-kappa-B inhibitor alpha (Mus musculus) (UniProt Q9Z1E3).
T1 sequence (whole entry): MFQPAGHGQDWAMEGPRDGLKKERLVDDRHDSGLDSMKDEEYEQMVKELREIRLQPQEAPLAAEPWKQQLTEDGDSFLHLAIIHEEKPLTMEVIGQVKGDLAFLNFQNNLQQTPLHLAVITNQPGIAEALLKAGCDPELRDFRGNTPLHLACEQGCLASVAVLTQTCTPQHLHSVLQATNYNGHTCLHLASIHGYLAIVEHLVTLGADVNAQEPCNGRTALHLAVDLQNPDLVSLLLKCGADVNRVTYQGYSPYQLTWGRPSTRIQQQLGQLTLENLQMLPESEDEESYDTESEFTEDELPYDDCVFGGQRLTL
As to the kind of experiment: Inhibition of RANKL-induced IkappaBalpha phosphorylation in C57BL/6 mouse BMDM cells incubated for 60 mins by Western blot analysis. In kind it is cell-based.

Assay [6] has as its system BMDM. Briefly: Anti-osteoclastogenesis activity in RANKL-induced C57BL/6 mouse BMDM cells assessed as inhibition of NFATc1 protein level at 5 to 10 uM in the presence of M-CSF by Western blot analysis. In kind it is functional, cell-based. The settings on record: dose 5-10 µM.
Assay [7] has as its target Transcription factor p65 (Mus musculus) (UniProt Q04207). As to the kind of experiment: Inhibition of RANKL-induced p65 NF-kappaB phosphorylation in C57BL/6 mouse BMDM cells transfected with Nrf2 siRNA at 10 uM incubated for 60 mins by Western blot analysis. In kind it is cell-based.
In assay [8] the test system is BMDM. Briefly: Anti-osteoclastogenesis activity in RANKL-induced C57BL/6 mouse BMDM cells assessed as downregulation of MMP-9 mRNA expression at 5 to 10 uM by qRT-PCR analysis. In kind it is functional, cell-based. The settings on record: dose 5-10 µM.
For assay [9], the target named is Kelch-like ECH-associated protein 1 (Mus musculus) (UniProt Q9Z2X8). As to the kind of experiment: Binding affinity to Keap1 in mouse RAW264.7 cells assessed as thermal stability at 20 uM preincubated with compound for 1 hrs followed by heating at 37 to 65 degreeC for 3 mins by CETSA. The assay is classed as cell-based. The settings on record: time 63.0 min.
The test system of assay [10] is BMDM. Briefly: Anti-osteoclastogenesis activity in RANKL-induced C57BL/6 mouse BMDM cells assessed as suppression of late stage osteoclast differentiation at 10 uM incubated from day 3 to day 5 in the presence of M-CSF by TRAP-staining based microscopic analysis. The assay is classed as functional, cell-based. The settings on record: time 2.0 day.
For assay [11], the system named is BMDM. Briefly: Anti-osteoclastogenesis activity in C57BL/6 mouse BMDM cells assessed as reduction in RANKL-induced ROS level at 5 to 10 uM incubated for 6 hrs by DCF-DA staining based fluorescence analysis. The settings on record: dose 5-10 µM. The assay is classed as functional, cell-based.
The subject of a further assay is RAW264.7. Briefly: Anti-osteoclastogenesis activity in RANKL-induced mouse RAW264.7 cells transfected with Nrf2 siRNA assessed as increase in HO-1 expression level incubated for 3 days by Western blot analysis. The settings on record: time 3.0 day. The assay is classed as functional, cell-based.
For assay [12], the system named is BMDM. As to the kind of experiment: Anti-osteoclastogenesis activity in RANKL-induced C57BL/6 mouse BMDM cells assessed as downregulation of TRAP mRNA expression at 5 to 10 uM by qRT-PCR analysis. The assay is classed as functional, cell-based. The settings on record: dose 5-10 µM.
Assay [13] has as its system BMDM. As to the kind of experiment: Inhibition of osteoclast migration in RANKL-induced C57BL/6 mouse BMDM cells at 10 uM incubated for 48 hrs in the presence of M-CSF by TRAP staining based wound healing assay. The assay is classed as functional, cell-based.
The subject of assay [14] is BMDM. As to the kind of experiment: Anti-osteoclastogenesis activity in RANKL-induced C57BL/6 mouse BMDM cells assessed as decrease in number of F-actin ring formation at 1 to 10 uM incubated for 7 days in the presence of M-CSF by DAPI staining based fluorescence microscopic analysis. The settings on record: dose 1-10 µM, time 7.0 day. In kind it is functional, cell-based.

The test system of assay [15] is BMDM. As to the kind of experiment: Anti-osteoclastogenesis activity in RANKL-induced C57BL/6 mouse BMDM cells assessed as increase in NQO-1 expression at 5 to 10 uM in the presence of M-CSF by Western blot analysis. The assay is classed as functional, cell-based. The settings on record: dose 5-10 µM.
For assay [16], the target named is Kelch-like ECH-associated protein 1 (Homo sapiens, UniProt Q14145). As to the kind of experiment: Binding affinity to recombinant human Keap1 assessed as equilibrium dissociation constant by SPR analysis. (SPR reads the build-up and loss of mass on a sensor chip optically.)
The subject of assay [17] is BMDM. As to the kind of experiment: Anti-osteoclastogenesis activity in RANKL-induced C57BL/6 mouse BMDM cells assessed as inhibition of c-Fos protein level at 5 to 10 uM in the presence of M-CSF by Western blot analysis. In kind it is functional, cell-based. The settings on record: dose 5-10 µM.
Assay [18] has as its system BMDM. Briefly: Anti-osteoclastogenesis activity in RANKL-induced C57BL/6 mouse BMDM cells assessed as downregulation of NFATc1 mRNA expression at 5 to 10 uM by qRT-PCR analysis. In kind it is functional, cell-based. The settings on record: dose 5-10 µM.
The subject of assay [19] is BMDM. As to the kind of experiment: Anti-osteoclastogenesis activity in RANKL-induced C57BL/6 mouse BMDM cells assessed as increase in nuclear Nrf2 level at 5 to 10 uM in the presence of M-CSF by Western blot analysis. In kind it is functional, cell-based. The settings on record: dose 5-10 µM.
The subject of assay [20] is BMDM. Briefly: Anti-osteoclastogenesis activity in C57BL/6 mouse BMDM cells assessed as inhibition of RANKL-induced osteoclastogenesis at 10 uM incubated for 7 days in the presence of M-CSF by TRAP-staining based microscopic analysis relative to control. In kind it is functional. The settings on record: C57BL/6, BMDM, 168 h, time 7 day.

Sequence of Kelch-like ECH-associated protein 1 (Q14145 whole entry): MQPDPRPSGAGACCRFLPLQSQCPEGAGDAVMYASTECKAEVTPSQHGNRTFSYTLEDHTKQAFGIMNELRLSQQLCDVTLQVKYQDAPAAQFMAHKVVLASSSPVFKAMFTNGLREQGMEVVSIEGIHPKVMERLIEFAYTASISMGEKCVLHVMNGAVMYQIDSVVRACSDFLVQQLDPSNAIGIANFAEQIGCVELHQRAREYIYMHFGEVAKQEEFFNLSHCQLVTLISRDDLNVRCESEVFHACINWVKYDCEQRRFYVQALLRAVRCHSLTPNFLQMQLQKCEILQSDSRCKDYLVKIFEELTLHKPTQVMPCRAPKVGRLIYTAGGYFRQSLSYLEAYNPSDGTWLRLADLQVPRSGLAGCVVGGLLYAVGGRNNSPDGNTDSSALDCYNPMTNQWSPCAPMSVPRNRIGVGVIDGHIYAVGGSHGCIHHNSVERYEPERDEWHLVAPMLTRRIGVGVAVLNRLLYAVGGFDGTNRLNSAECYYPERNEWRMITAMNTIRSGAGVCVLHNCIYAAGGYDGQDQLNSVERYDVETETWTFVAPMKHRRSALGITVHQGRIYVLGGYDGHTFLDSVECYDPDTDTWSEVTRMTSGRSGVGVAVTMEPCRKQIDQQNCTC
Sequence of Transcription factor p65 (Mus musculus) (Q04207 whole entry): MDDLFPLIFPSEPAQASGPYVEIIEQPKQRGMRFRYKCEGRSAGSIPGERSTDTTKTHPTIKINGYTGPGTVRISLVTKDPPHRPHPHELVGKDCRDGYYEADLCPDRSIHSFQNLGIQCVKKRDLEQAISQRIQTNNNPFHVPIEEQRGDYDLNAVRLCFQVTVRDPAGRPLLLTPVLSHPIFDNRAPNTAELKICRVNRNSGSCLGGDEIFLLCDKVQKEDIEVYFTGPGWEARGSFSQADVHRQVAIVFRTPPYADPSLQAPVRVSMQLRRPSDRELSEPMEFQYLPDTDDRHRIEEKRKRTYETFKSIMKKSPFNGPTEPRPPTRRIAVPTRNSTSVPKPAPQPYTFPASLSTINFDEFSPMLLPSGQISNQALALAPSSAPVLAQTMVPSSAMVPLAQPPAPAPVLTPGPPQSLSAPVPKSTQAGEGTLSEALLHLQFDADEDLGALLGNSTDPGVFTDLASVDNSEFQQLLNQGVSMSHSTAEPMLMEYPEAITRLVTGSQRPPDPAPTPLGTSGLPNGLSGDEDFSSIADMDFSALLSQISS
Sequence of Kelch-like ECH-associated protein 1 (Mus musculus) (Q9Z2X8 whole entry): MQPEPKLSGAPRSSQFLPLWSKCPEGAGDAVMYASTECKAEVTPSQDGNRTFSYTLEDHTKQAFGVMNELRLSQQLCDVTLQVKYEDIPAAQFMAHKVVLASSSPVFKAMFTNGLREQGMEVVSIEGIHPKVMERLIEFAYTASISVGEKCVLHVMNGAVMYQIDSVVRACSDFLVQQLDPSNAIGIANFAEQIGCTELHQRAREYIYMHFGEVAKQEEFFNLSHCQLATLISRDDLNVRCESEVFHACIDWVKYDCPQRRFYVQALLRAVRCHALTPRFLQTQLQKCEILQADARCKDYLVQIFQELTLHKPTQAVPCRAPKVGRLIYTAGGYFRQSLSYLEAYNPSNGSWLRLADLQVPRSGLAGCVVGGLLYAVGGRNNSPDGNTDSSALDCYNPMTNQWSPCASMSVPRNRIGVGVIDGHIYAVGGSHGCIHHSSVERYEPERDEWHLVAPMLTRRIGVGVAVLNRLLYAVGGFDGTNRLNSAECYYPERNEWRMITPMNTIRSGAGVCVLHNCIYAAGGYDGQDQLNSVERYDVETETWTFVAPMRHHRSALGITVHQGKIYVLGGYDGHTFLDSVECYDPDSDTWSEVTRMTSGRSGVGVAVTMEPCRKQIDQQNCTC

As to `C=C1[C@H]2O[C@]3([C@@H](C)C(=O)O[C@H]3[C@H]1Cl)[C@@H](OC(C)=O)[C@H]1[C@]3(CC[C@H](OC(C)=O)[C@]1(C)[C@@H](OC(C)=O)[C@@H]2OC(C)=O)CO3`, the result (with BMDM [1]; with BMDM [6]; in the assay with BMDM [8]; in assay [9]; in the assay on BMDM [10]; in the assay with BMDM [11]) was Active. In addition, the result in the assay with BMDM [12], in the assay on BMDM [14], in the assay with BMDM [15], in the assay on BMDM [17], in the assay on BMDM [18] and with BMDM [19] was Active. The inhibition entry (in assay [2]; in assay [5]; in the assay on BMDM [13]) was “Active” throughout. The inhibition result in [3], in assay [4] and in assay [7] was “inactive” each time. For the same compound, the outcome in the assay on RAW264.7 was inactive. In addition, the Kd – broadly, the concentration at which binding is half-saturated – in assay [16] turned out to be 6.4 µM. The inhibition – broadly, the share of the control response that was lost under treatment – at 10 µM in the assay with BMDM [20] came to 100%.
